The values that follow come from PMC12196235, “Enhancing the Pharmacological Properties of Triterpenes Through Acetylation: An Anticancer and Antioxidant Perspective” (Molecules, 2025).

Structures are written as SMILES. Several values for one entry are separate records, joined by “and”; a condition that tells them apart may be missing. Identical values can stand only once.

Series [1] has as its system SFV (Semliki Forest virus). More on the design: method as in PMID 19839605. To be noted: ref 43; read-out: antiviral IC50 (SFV); cited from earlier work.
Series [2] deals with HPGBM (human glioblastoma multiforme). As to conditions: ref 47; read-out: anticancer IC50 (HPGBM); cited from earlier work.
Series [3] has as its system FTC-238 (human thyroid carcinoma). To be noted: ref 47; read-out: anticancer IC50 (FTC-238); cited from earlier work.
Series [4] has as its system SKOV-3 (human ovarian carcinoma). The series is described as follows: MTT assay, SKOV-3. The series is classed as cell-based. In general terms: Tetrazolium assays rely on reduction of a dye to a coloured formazan, in cell work by metabolically active cells.
For series [5], the system named is HeLa (human cervical epithelioid carcinoma). The series is described as follows: MTT assay, HeLa. In kind it is cell-based. The method, boiled down:
(§1)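 MTT formazan read-out of viable cells after compound exposure at 37 °C. MCF-7 and A-549 grown in RPMI 1640, HeLa in DMEM, HDF normal fibroblasts in Fibroblast Basal Medium; each with 10% FBS, 1% L-glutamine and 1% penicillin/streptomycin.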

The subject of series [6] is SGC7901 (human gastric carcinoma). To be noted: ref 48, cited from earlier work.
Series [7] deals with PC-3 (human prostate carcinoma). The series is described as follows: MTT assay, PC-3. The series is classed as cell-based.
The next series relates to C-6. To be noted: ref 47; read-out: anticancer IC50 (C-6); cited from earlier work.
Series [8] deals with P-388 (murine lymphocytic leukemia). As to conditions: ref 49, cited from earlier work.
The next series in a line: DPPH antioxidant assay. To be noted: calculated from Trolox standard curve. A digest of the protocol:
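The CUPRAC reagent was made from 7.5 mM neocuproine, 10 mM CuCl2 and ammonium acetate buffer pH 7.0; the DPPH reagent was a 0.2 mM solution. Both were read spectrophotometrically in plates. Activity is given as % inhibition and as Trolox equivalents from standard curves.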

The subject of series [9] is HT-29 (human colorectal adenocarcinoma). To be noted: ref 47; read-out: anticancer IC50 (HT-29); cited from earlier work.
The subject of series [10] is HPCC (human cervical carcinoma). As to conditions: ref 47; read-out: anticancer IC50 (HPCC); cited from earlier work.
For another series, the system named is SKOV-3. As to the kind of experiment: Apoptosis assay (Cell Death Detection ELISA Plus), SKOV-3. The series is classed as cell-based, human. How it is done:
The induction of apoptosis by tested compounds was determined with Cell Death Detection ELISA Plus from Roche Diagnostics GmbH (Mannheim, Germany).
Cell Death Detection ELISA Plus is an enzyme immunoassay for determining cytoplasmic histone-associated DNA fragments (mono- and […]) after induced cell death. Cells (10^4) were pipetted into wells of 96-well plates, and test compounds were added at final concentrations of 0.1, 1.0 and 10.0 µg × mL^−1. Cells incubated in the absence of test compounds served as negative controls. After 4 h of incubation, cells were harvested by centrifugation of the plates for 10 min at 200× g. Supernatants were removed carefully, and cell pellets were resuspended in 200 µL of cell lysis buffer and incubated for 30 min at room temperature. After centrifugation of the plates (10 min at 200× g), 20 µL of cell lysates was transferred in duplicate into wells of provided streptavidin-coated microplates. Then, 80 µL of the immunoreagent containing a mixture of anti-histone-biotin monoclonal antibody and anti-DNA-peroxidase monoclonal antibody was added to each well. The microplates were covered with a provided adhesive foil and incubated for 2 h at room temperature. Thereafter, the solution in the wells was removed by tapping the microplate. The wells were rinsed three times with incubation buffer, and 100 µL of substrate (2,2′-azino-bis [3-ethylbenzothiazoline-6-sulphonic acid], ABTS) was added to each well. After 10–20 min, 100 µL of ABTS stop solution was pipetted to each well, and the absorbance was read at 405 nm (test wavelength) and 490 nm (reference wavelength). The apoptotic index was calculated based on the enrichment of mono- and oligonucleosomes according to the following equation:apoptotic index = [{A405(sample) − A490(sample)}/{A405(negative control) − A490(negative control)}]

In series [11] the test system is HeLa, KB, MCF-7, A-549, PC-3 and SKOV-3. As to the kind of experiment: MTT assay, summary over the cancer cell lines. The series is classed as cell-based, human. As to conditions: classification by IC50 (good ≤ 10 μM, moderate 10–30 μM, ref 83). The method, boiled down: as §1

Consider `C=C(C)[C@@H]1CC[C@]2(CO)CC[C@]3(C)[C@H](CC[C@@H]4[C@@]5(C)CC[C@H](O)C(C)(C)[C@@H]5CC[C@]43C)[C@@H]12` [5a, betulin], for which the IC50 (usually the concentration that inhibits the measured activity by half) was 45.5 µM in series [1]; 3.4 µM in [2]; 6.8 µM in series [3]; 6.95 µM in series [4] (Homo sapiens, SK-OV-3, MTT assay, SKOV-3, read-out: IC50 (±SD), SKOV-3); 18.3 µM in [5] (Homo sapiens, MTT assay, HeLa, read-out: IC50 (±SD), HeLa); 29.4 µM in series [6] (read-out: anticancer IC50 (SGC7901)). In addition, the IC50 in series [7] (Homo sapiens, MTT assay, PC-3, read-out: IC50 (±SD), PC-3) was 6.22 µM; with C-6 it was 5.9 µM; in series [8] (read-out: anticancer IC50 (P-388)), 12.4 µM; in series [9] it was 4.3 µM; in series [10], 3.4 µM. Besides, the “Selectivity index (SI), SKOV-3” value in series [4] (IC50 HDF / IC50 SKOV-3) worked out at 2.27. The “Selectivity index (SI), HeLa” value in series [5] (IC50 HDF / IC50 HeLa) stood at 0.86. Also, the “anticancer IC50 (SGC7901)” value in series [6] is given as 13 µg/mL. In addition, the “Selectivity index (SI), PC-3” value in series [7] (IC50 HDF / IC50 PC-3) is listed as 2.54. For the same molecule, in [8], the “anticancer IC50 (P-388)” value is on record as 5.5 µg/mL. Further, the “Trolox Equivalent, DPPH Assay” value in the series “DPPH antioxidant assay” was 0.01077 mg/mL and 0.01077 ± 0.000446 mg/mL. Further, the mean apoptotic index with SKOV-3 (0.1 µg/mL, mean over SKOV-3 and PC-3) is listed as 5.54. For the same molecule, in the series on SKOV-3 (SKOV-3, 4 h incubation, enrichment of mono- and oligonucleosomes vs negative control), the “Apoptotic index (AI), SKOV-3” value is listed as 5.26 (0.03). Moreover, the “cytotoxic activity class” value in series [11] is given as “high or moderately high activity”.
